For the test, the system named is wild-type ZIKV (Ugandan MR766 strain) in Vero cells. In words: ZIKV cytopathic effect (CPE) inhibition qHTS assay, CellTiter-Glo readout. The class given is cell-based, Zika virus. The conditions noted are these: for Emax: read-out: Max response.
[1] abbreviates: Zika virus, Vero, read-out: Log AC50 (M) (converted).
Setting [2] is: Zika virus, Vero, read-out: Log AC50 (converted).

This is an account of results in article PMC8765781, “A platform of assays for the discovery of anti-Zika small-molecules with activity in a 3D-bioprinted outer-blood-retina model” (PLoS ONE, 2022).

Like-named read-outs stand apart in the source and are kept apart here. Where a SMILES comes first, the peptide text is derived from it. [ ]: non-standard residue; d: D form. ξ: configuration not given here. ξLac(3-iPr) = CC(C)CC(O)C(=O)O; NMeV = CN[CH](C(=O)O)C(C)C; NMeA = CN[CH](C)C(=O)O; βAla = NCCC(=O)O

With `O=S(=O)(c1ccc(S(=O)(=O)n2cnc3ccccc32)cc1)N1CCCCCC1` [MLS000033224-02], the “CC-v2 (curve class classification of the dose response curve)” value (“CC-v2” below) is given as -3 and the Efficacy is on record as -29.668. The same compound returned an AC50 (Zika virus, Vero) of 3.17e-05 M. Moreover, the half-maximal activity concentration (AC50) under setting [1] was 3.17e-05 M.

As for `O=c1c2ccccc2nc2n1CCc1c-2[nH]c2ccccc12` [NCGC00015892-08], the “CC-v2” value is on record as -2.2 and the Efficacy is -34.451. Under “Zika virus, Vero”, this compound had an AC50 of 4.11e-05 M. In addition, the AC50 under setting [1] was 4.11e-05 M.

For `COc1ccc(CCN(C)CCCC(C#N)(c2ccc(OC)c(OC)c2)C(C)C)cc1OC` (centres unmarked) [NCGC00016083, Verapamil, reference compound], the “Identified as active in CPE assay validation set” value (shortened to “Identified as active”) was “identified”.

In turn, `COc1ccc2c(OC)c3ccoc3nc2c1OC` [NCGC00016333-05] yielded an Efficacy of -23.663. Besides, the AC50 (Zika virus, Vero) is 1.84e-05 M. Further, under setting [1], the AC50 was 1.84e-05 M.

Turning to `C[S+]([O-])c1ccc(-c2nc(-c3ccncc3)c(-c3ccc(F)cc3)[nH]2)cc1` (centres unmarked) [NCGC00025035, SB-203580, reference compound], the “Identified as active” value is listed as “identified”.

In turn, `CCOC(=O)C1=C(N)Oc2ccc(Br)cc2C1C(C#N)C(=O)OCC` (centres unmarked) [NCGC00025207-15] came in with an Efficacy of -30.652. The AC50 under setting [1] was 7.31e-05 M.

For the compound `CCOC(=O)C1=C(N)Oc2ccc(Br)cc2C1C(C#N)C(=O)OCC` (centres unmarked) [NCGC00025207-16], the concentration at half-maximal activity (AC50) worked out at 3.26e-05 M, the Curve class was -3 and the Efficacy is -33.191. In addition, the AC50 under setting [2] was 3.26e-05 M. In addition, the Emax (Zika virus, Vero) is -2.2%.

As to `C[C@H]1O[C@@H](O[C@H]2[C@@H](O)C[C@H](O[C@H]3[C@@H](O)C[C@H](O[C@H]4CC[C@@]5(C)[C@H](CC[C@@H]6[C@@H]5C[C@@H](O)[C@]5(C)[C@@H](C7=CC(=O)OC7)CC[C@]65O)C4)O[C@@H]3C)O[C@@H]2C)C[C@H](O)[C@@H]1O` [NCGC00090797-15], the Efficacy is listed as -19.155. This compound yielded an AC50 (Zika virus, Vero) of 8.2e-06 M. Also, under setting [1], the AC50 is 8.2e-06 M.

For `O=C1Nc2ccc(Cl)cc2[C@@](C#CC2CC2)(C(F)(F)F)O1` [NCGC00159337, efavirenz, reference compound], the “Identified as active” value is listed as “identified”.

`COc1ccc2cc1Oc1ccc(cc1)C[C@H]1c3c(cc4c(c3Oc3cc5c(cc3OC)CCN(C)[C@@H]5C2)OCO4)CCN1C` [NCGC00161621-05]: the Efficacy is -31.519. Where the note is “Zika virus, Vero”, this compound yielded a concentration at half-maximal activity (AC50) of 6.51e-05 M. Under setting [1], the AC50 was 6.51e-05 M.

The compound `CN(C)CC1CCn2c(c(C3=C(c4cn(C)c5ccccc45)C(=O)NC3=O)c3ccccc32)C1` (centres unmarked) [NCGC00163696-04] gave an Efficacy of -28.697. Half-maximal activity (Zika virus, Vero) (AC50) was put at 3.26e-05 M. Further, the AC50 under setting [1] is 3.26e-05 M.

Take `O=C1c2c(O[C@@H]3O[C@H](CO)[C@@H](O)[C@H](O)[C@H]3O)cc(O)cc2OC1(O)Cc1ccc(O)cc1` (some centres unmarked) [NCGC00168800-03]: the “CC-v2” value was -3 and the Efficacy was -41.876. This compound returned an AC50 (Zika virus, Vero) of 3.17e-05 M. Also, the AC50 under setting [1] was 3.17e-05 M.

Consider `C=C1C(=O)O[C@@H]2C3C(=C(C)[C@@H](O)[C@@H](OC(=O)/C(=C/C)COC(C)=O)[C@@H]12)C(=O)[C@H]1O[C@@]31C` (some centres unmarked) [NCGC00168883-03], for which the “CC-v2” value is -2.1 and the Efficacy is given as -116.882. The same compound showed a concentration at half-maximal activity (AC50) (Zika virus, Vero) of 3.17e-05 M. Also, under setting [1], the half-maximal activity concentration (AC50) was 3.17e-05 M.

Take `C=CC/C=C\C/C=C\CCCCCCCc1cc(O)cc(O)c1` [NCGC00168928-02]: the Efficacy was -22.946. Moreover, the activity (Zika virus, Vero) was half-maximal at 4.53e-05 M (AC50). Moreover, the AC50 under setting [1] was 4.53e-05 M.

As for `COc1cc2occc2c(O[C@@H]2O[C@H](CO)[C@@H](O)[C@H](O)[C@H]2O)c1CCC(=O)O` [NCGC00168932-02], the “CC-v2” value was -3 and the Efficacy is recorded as -83.984. The same compound had an AC50 (Zika virus, Vero) of 1.59e-05 M. Besides, the AC50 under setting [1] was 1.59e-05 M.

Take `CC(=O)O[C@@]1(C)C[C@@H](O)[C@]2(O)C=CO[C@@H](O[C@@H]3O[C@H](CO)[C@@H](O)[C@H](O)[C@H]3O)[C@@H]21` [NCGC00169032-03]: the Curve class was -3 and the Efficacy is reported as -81.683. For the setting “Zika virus, Vero”, the AC50 came to 1.42e-05 M and the Emax is 1.21%. Also, the half-maximal activity concentration (AC50) under setting [2] is 1.42e-05 M.

Regarding `C/C=C(/C)C(=O)O[C@H]1C=C(CO)C(=O)[C@H](OC(=O)/C(C)=C/CO)[C@H]1C(C)C` [NCGC00169078-03], the “CC-v2” value is on record as -3 and the Efficacy is on record as -32.45. In addition, the AC50 (Zika virus, Vero) is 5.08e-05 M. Moreover, the AC50 under setting [1] was 5.08e-05 M.

Regarding `C=C1C(=O)O[C@@H]2C[C@H](C)[C@@H]3CC(=O)C(C)=C3C[C@H]12` [NCGC00169080-02], the Curve class was -3 and the Efficacy is -111.978. Also, where the note is “Zika virus, Vero”, the AC50 turned out to be 6.51e-05 M and the Emax is -89.7%. For the same compound, the AC50 under setting [2] was 6.51e-05 M.

`C=C(C)C(=O)O[C@H]1[C@H]2C(=C)C(=O)O[C@@H]2C[C@@H](C)/C=C\C(=O)[C@](C)(O)[C@@H]1OC(C)=O` [NCGC00169210-02]: the Curve class is listed as -3 and the Efficacy is reported as -39.663. For the setting “Zika virus, Vero”, half-maximal activity (AC50) was put at 3.55e-05 M and the Emax is -40.2%. Also, the AC50 under setting [2] was 3.55e-05 M.

Turning to `C=C(C)C(=O)O[C@H]1[C@H]2C(=C)C(=O)O[C@@H]2C[C@@H](C)[C@@H]2O[C@@H]2C(=O)[C@](C)(O)[C@@H]1OC(=O)C(=C)C` [NCGC00169479-03], the “CC-v2” value is -3 and the Efficacy was -35.91. The compound further had an AC50 (Zika virus, Vero) of 3.55e-05 M. Further, the concentration at half-maximal activity (AC50) under setting [1] was 3.55e-05 M.

Turning to `C[C@H]1C(=O)N2c3ccccc3[C@@]3(O)C[C@@H]4C(=O)N[C@](C)(c5nc6ccccc6c(=O)n54)N1[C@@H]23` [NCGC00169614-02], the Curve class was -3 and the Efficacy is recorded as -78.987. In addition, under “Zika virus, Vero”, the AC50 amounted to 1.59e-05 M and the Emax was 0.173%. For the same compound, the AC50 under setting [2] is 1.59e-05 M.

In the case of `C=C(C(=O)O)[C@@H]1CC[C@@]2(C)CCC[C@@](C)(O)[C@@H]2C1` [NCGC00169889-02], the Curve class is -3 and the Efficacy is -77.65. Also, under “Zika virus, Vero”, the AC50 was 2.91e-05 M and the Emax was -0.865%. In addition, the AC50 under setting [2] is 2.91e-05 M.

`CCC(C)C1NC(=O)C2CCCN2C(=O)C(CC(C)C)OC(=O)CCNC(=O)C(C)N(C)C(=O)C(C(C)C)N(C)C1=O` (centres unmarked) [NCGC00169957-03] (cyclo([ξLac(3-iPr)]PI[NMeV][NMeA][βAla]); configuration not given here): the “CC-v2” value is listed as -2.2 and the Efficacy is reported as -56.609. This compound displayed a concentration at half-maximal activity (AC50) (Zika virus, Vero) of 1.93e-05 M. Moreover, the AC50 under setting [1] is 1.93e-05 M.

For `CC1(C)CC[C@]2(C(=O)O)CC[C@]3(C)C(=CCC4[C@@]5(C)CC[C@H](O[C@@H]6O[C@H](C(=O)O)[C@@H](O[C@@H]7OC[C@@H](O)[C@H](O)[C@H]7O)[C@H](O)[C@H]6O)C(C)(C)C5CC[C@]43C)C2C1O` (some centres unmarked) [NCGC00179805-02], the “CC-v2” value is listed as -3 and the Efficacy is reported as -39.908. Under “Zika virus, Vero”, this compound yielded an AC50 of 2.73e-05 M. For the same compound, the AC50 under setting [1] was 2.73e-05 M.

`COC(=O)C12CCC(C)C(C)C1C1=CCC3C4(C)CCC(OC(C)=O)C(C)(C)C4CCC3(C)C1(C)CC2` (centres unmarked) [NCGC00179932-02]: the “CC-v2” value is listed as -3 and the Efficacy is -73.633. Besides, for the setting “Zika virus, Vero”, the AC50 was 1.42e-05 M. Further, the AC50 under setting [1] is 1.42e-05 M.

Turning to `C=C(C)C1=C[C@@]2(C)C(=CC1=O)CC[C@@H](O)[C@@H]2C` [NCGC00180357-02], the Efficacy was -25.033. For the same compound, under “Zika virus, Vero”, the AC50 amounted to 1.46e-05 M. In addition, the concentration at half-maximal activity (AC50) under setting [1] was 1.46e-05 M.

`CO[C@H]1[C@H](O)[C@H](O[C@H]2CC[C@]3(C)C4CC[C@]5(C)[C@H](C6=CC(=O)OC6)CC[C@]5(O)C4CC[C@@H]3C2)O[C@@H](C)[C@@H]1O` (some centres unmarked) [NCGC00180641-02] returned an Efficacy of -18.714. This compound also yielded an AC50 (Zika virus, Vero) of 1e-06 M. Besides, under setting [1], the half-maximal activity concentration (AC50) was 1e-06 M.

For `C=C[C@H]1[C@H](O[C@@H]2O[C@H](CO)[C@@H](O)[C@H](O)[C@H]2O)OC=C2C(=O)OCC[C@H]21` [NCGC00180755-03], the AC50 reads like this: (Zika virus, Vero, from Hill fit of the response curve, 50% of maximum activity response, 194 cherry-picked compounds, protocol name not given, read-out: AC50) 1.28e-05 M; (Zika virus, Vero, potency in log units (Molar) from Hill fit of the response curve, 194 cherry-picked compounds, protocol name not given, read-out: Log AC50 (converted)) 1.28e-05 M. Also, the “CC-v2” value (curve class v2 (Inglese et al. 2006)) is reported as -3. The same compound showed an Efficacy (difference between neutral response and maximum compound response) of -78.228.

With `C/C=C(\C)C(=O)O[C@H]1C=C(CO)C(=O)[C@H](OC(C)=O)[C@H]1C(C)C` [NCGC00180769-03], the “CC-v2” value is listed as -3 and the Efficacy is -32.712. Where the note is “Zika virus, Vero”, this compound gave an AC50 of 4.53e-05 M. Under setting [1], the AC50 was 4.53e-05 M.

Regarding `COc1cc(O)c2c(c1)/C=C/C[C@H](O)[C@H](O)C(=O)/C=C\C[C@H](C)OC2=O` [NCGC00186421-07], the “CC-v2” value was -3 and the Efficacy is on record as -83.256.

Turning to `COC(=O)[C@]12CCC(C)(C)C[C@H]1[C@H]1C(=O)C=C3[C@@]4(C)C=C(C#N)C(=O)C(C)(C)[C@@H]4CC[C@@]3(C)[C@]1(C)CC2` [NCGC00186460, bardoxolone methyl, reference compound], the “Identified as active” value is recorded as “identified”.

`COc1cc2c(NC3CCN(C(C)C)CC3)nc(C3CCCCC3)nc2cc1OCCCN1CCCC1` [NCGC00189220-03] showed an Efficacy of -26.68. The compound also displayed an AC50 (Zika virus, Vero) of 7.31e-05 M. The AC50 under setting [1] is 7.31e-05 M.

With `CC(C)(O)CCc1ccc(OCc2cc(-c3cccc(OC(F)F)c3)c3ncccc3c2)cc1` [NCGC00249759-02], the Efficacy was -26.837. For the same compound, under “Zika virus, Vero”, the AC50 turned out to be 3.26e-05 M. Besides, the AC50 under setting [1] was 3.26e-05 M.
